Data set [1] can be described thus: Metabolic stability in human liver microsomes assessed as parent compound remaining at 0.5 uM after 10 mins. Type of data set: ADME, Microsome. Particulars: read-out: Stabilty. A general note: Liver microsomes are vesicles of endoplasmic reticulum, rich in cytochrome P450 enzymes.
Data set [2] can be described thus: AUC in mouse at 10 mg/kg, po. Type of data set: ADME, organism-based. Set-up: dose 10 mg/kg. Particulars: in vivo.
The nature of data set [3]: Cmax in mouse at 10 mg/kg, po. Particulars: in vivo. Set-up: route oral, dose 10 mg/kg. Type of data set: ADME, organism-based.
Data set [4] can be described thus: Permeability of the compound at pH 5.5 by PAMPA. Particulars: read-out: permeability. It is filed as ADME. In general terms: PAMPA measures passive passage across an artificial lipid membrane.
Data set [5] can be described thus: Permeability of the compound at pH 7.4 by PAMPA. Type of data set: ADME. To be noted: read-out: permeability.
Data set [6] can be described thus: Metabolic stability in human liver microsomes assessed as half life. It is filed as ADME, Microsome.
Data set [7] can be described thus: AUC in mouse at 2 mg/kg, po. Type of data set: ADME, organism-based. Set-up: dose 2 mg/kg. To be noted: in vivo.
Data set [8] in a line: Cmax in mouse at 2 mg/kg, po. To be noted: in vivo. It is filed as ADME, organism-based. Set-up: route oral, dose 2 mg/kg.

As usually defined, the AUC is concentration integrated over time. A lower AUC goes with less exposure. One may read the Cmax as the maximum level reached in the sampled fluid or tissue. Usually half-life stands for how long it takes for the measured level to halve.

As for `COc1cccc([C@@H](C)NC(=O)c2ccc(-c3cn[nH]c3)cc2OC)c1`, the remaining at 10 min, 0.5 µM in data set [1] amounted to 49%.

With `COc1cccc([C@@H](C)NC(=O)c2ccc(-c3cn[nH]c3)c(OC)c2)c1`, the remaining at 10 min, 0.5 µM in data set [1] was 32%.

On to `COc1cccc(CNC(=O)c2ccc(-c3cn[nH]c3)c(OC)c2)c1`, for which the remaining at 10 min, 0.5 µM in data set [1] was found to be 49%.

`COc1cc(C(=O)N[C@H](CO)c2ccccc2)ccc1-c1cn[nH]c1` displayed an AUC in data set [2] of 90 µM·h. This molecule also had a peak concentration (Cmax) in data set [3] of 21 µM. For the same molecule, the Papp stood at 10.5 ×10⁻⁶ cm/s in data set [4] and 11 ×10⁻⁶ cm/s in data set [5]. In addition, in data set [1], the remaining at 10 min, 0.5 µM came out at 87%.

For `COc1cccc([C@@H](C)NC(=O)c2ccc(-c3cn[nH]c3)c(Cl)c2)c1`, the remaining at 10 min, 0.5 µM in data set [1] turned out to be 59%.

On to `COc1cccc([C@@H](C)NC(=O)c2ccc(-c3cn[nH]c3)c(OC)c2F)c1`, for which, in data set [1], the remaining at 10 min, 0.5 µM turned out to be 57%.

For the molecule `COc1cccc([C@@H](C)NC(=O)c2ccc(-c3cn[nH]c3)c(C)c2)c1`, the area under the curve (AUC) in data set [2] is 35 µM·h. For the same molecule, the highest level in data set [3] (Cmax) was 12 µM. For the same molecule, the Papp in data set [4] amounted to 29 ×10⁻⁶ cm/s; in data set [5], 20 ×10⁻⁶ cm/s. Moreover, the remaining at 10 min, 0.5 µM in data set [1] was 74%.

`COc1cccc([C@@H](C)NC(=O)c2ccc(-c3cn[nH]c3)c(C(F)(F)F)c2)c1`: the remaining at 10 min, 0.5 µM in data set [1] was found to be 44%.

For `COc1cc(C(=O)N[C@H](CN)c2ccccc2)ccc1-c1cn[nH]c1`, in data set [1], the remaining at 10 min, 0.5 µM was determined as 93%.

In the case of `COc1cccc([C@@H](C)NC(=O)c2ccc(-c3cn[nH]c3)c(C#N)c2)c1`, the remaining at 10 min, 0.5 µM in data set [1] is 67%.

As to `COc1cc(NC(=O)[C@H](N)CCc2ccccc2)ccc1-c1cn[nH]c1`, in data set [2], the AUC is 140 µM·h. Further, the highest level in data set [3] (Cmax) was 28 µM. The Papp in data set [4] was found to be 45 ×10⁻⁶ cm/s; in data set [5] it was 74 ×10⁻⁶ cm/s. Also, in data set [6], the half-life worked out at 41 min.

In the case of `COc1cc(C(=O)N[C@H](C)c2c(F)cccc2F)ccc1-c1cn[nH]c1`, the exposure (AUC) in data set [2] came out at 140 µM·h. Moreover, the Cmax in data set [3] was 23 µM. Besides, the Papp in data set [4] and in data set [5] was 61 ×10⁻⁶ cm/s each time. For the same molecule, the remaining at 10 min, 0.5 µM in data set [1] was 79%.

Turning to `COc1cc(NC(=O)[C@@H](N)CCc2ccccc2)ccc1-c1cn[nH]c1`, the half-life in data set [6] came to 62 min.

On to `COc1cc(C(=O)N[C@H](C)c2ccccc2F)ccc1-c1cn[nH]c1`, for which the remaining at 10 min, 0.5 µM in data set [1] turned out to be 73%.

On to `COc1cc(NC(=O)Cc2ccccc2Cl)ccc1-c1cn[nH]c1`, for which the half-life in data set [6] was 36 min.

As for `COc1cc(C(=O)N[C@@H](c2ccccc2F)C(C)(C)O)ccc1-c1cn[nH]c1`, in data set [7], the area under the curve (AUC) was 5 µM·h. Moreover, the Cmax in data set [8] amounted to 1.3 µM. Moreover, the Papp in data set [4] was found to be 52 ×10⁻⁶ cm/s; in data set [5], 44 ×10⁻⁶ cm/s. Besides, in data set [1], the remaining at 10 min, 0.5 µM is 92%.

Regarding `COc1cc(NC(=O)[C@H](N)Cc2ccc(Cl)c(Cl)c2)ccc1-c1cn[nH]c1`, the half-life in data set [6] came to 31 min.

With `COc1cc(NC(=O)[C@H](N)c2ccccc2Cl)ccc1-c1cn[nH]c1`, the half-life in data set [6] was determined as 20 min.

For the molecule `COc1cc(NC(=O)[C@H](O)c2ccccc2Cl)ccc1-c1cn[nH]c1`, the half-life in data set [6] was found to be 15 min.

For the molecule `CCc1cc(C(=O)N[C@H](C)c2cccc(OC)c2)ccc1-c1cn[nH]c1`, the remaining at 10 min, 0.5 µM in data set [1] amounted to 38%.

For the molecule `COc1cc(C(=O)N[C@H](CO)c2c(F)cccc2F)ccc1-c1cn[nH]c1`, in data set [1], the remaining at 10 min, 0.5 µM is 90%.

These data come from ChEMBL document CHEMBL4665755, “Discovery of a phenylpyrazole amide ROCK inhibitor as a tool molecule for in vivo studies” (Bioorg Med Chem Lett, 2020).
